Test results from patent US20050112573A1, “Method of detecting toxic substance” (priority 2001, published 2005).

System: yeast genes (level of expressed mRNA)
Assay: DNA chip analysis of expressed mRNA of yeast genes after 2 h culture with a toxic chemical substance
Type: cell-based, Saccharomyces cerevisiae S288C
Procedure, shortened: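 S. cerevisiae S288C in YPD at 25 °C was exposed at log phase for 2 h to a growth-inhibiting, non-lethal concentration of the chemical. Poly(A) mRNA was reverse-transcribed with Cy3- or Cy5-dUTP and hybridized to a whole-genome yeast DNA chip (65 °C, >12 h). Values are fluorescence ratios versus untreated cells.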

CdCl2 [(2)]
The level of expressed mRNA in the presence of chemical substance/ (yeast gene YNL074C, ratio to control without chemical substance, 2 h culture): 1.3
The level of expressed mRNA in the presence of chemical substance/ (yeast gene YNL092W, ratio to control without chemical substance, 2 h culture): 1.4
The level of expressed mRNA in the presence of chemical substance/The level of expressed mRNA in the absence of chemical substance (yeast gene YNL093W): 6.4
The level of expressed mRNA in the presence of chemical substance/ (yeast gene YNL115C, ratio to control without chemical substance, 2 h culture): 1.8
The level of expressed mRNA in the presence of chemical substance/ (yeast gene YNL156C, ratio to control without chemical substance, 2 h culture): 1.2
The level of expressed mRNA in the presence of chemical substance/ (yeast gene YNL234W, ratio to control without chemical substance, 2 h culture): 1.1
The level of expressed mRNA in the presence of chemical substance/ (yeast gene YNL281W, ratio to control without chemical): 1.3
The level of expressed mRNA in the presence of chemical substance/ (yeast gene YNL305C, ratio to control without chemical): 2.2
The level of expressed mRNA in the presence of chemical substance/The level of expressed mRNA in the absence of chemical substance (yeast gene YNL333W): 1.4
The level of expressed mRNA in the presence of chemical substance/The level of expressed mRNA in the absence of chemical substance (yeast gene YNR010W): 1.2
The level of expressed mRNA in the presence of chemical substance/ (yeast gene YNR068C, ratio to control without chemical): 1.5
The level of expressed mRNA in the presence of chemical substance/The level of expressed mRNA in the absence of chemical substance (yeast gene YNR069C): 1.3
The level of expressed mRNA in the presence of chemical substance/in the absence of chemical substance (yeast gene YNR072W): 1.5
The level of expressed mRNA in the presence of chemical substance/The level of expressed mRNA in the absence of chemical substance (yeast gene YOL013C): 1.0
The level of expressed mRNA in the presence of chemical substance/ (yeast gene YOL032W, ratio to control without chemical): 0.8
The level of expressed mRNA in the presence of chemical substance/ (yeast gene YOL036W, ratio to control without chemical): 0.9
The level of expressed mRNA in the presence of chemical substance/ (yeast gene YOL047C, ratio to control without chemical): 1.1
The level of expressed mRNA in the presence of chemical substance/ (yeast gene YOL071W, ratio to control without chemical): 2.0
The level of expressed mRNA in the presence of chemical substance/ (yeast gene YOL082W, ratio to control without chemical): 1.6
The level of expressed mRNA in the presence of chemical substance/ (yeast gene YOL083W, ratio to control without chemical): 2.3
The level of expressed mRNA in the presence of chemical substance/in the absence of chemical substance (yeast gene YOL096C): 1.0
The level of expressed mRNA in the presence of chemical substance/ (yeast gene YOL117W, ratio to control without chemical): 1.1
The level of expressed mRNA in the presence of chemical substance/ (yeast gene YOL131W, ratio to control without chemical): 1.5
The level of expressed mRNA in the presence of chemical substance/ (yeast gene YOL150C, ratio to control without chemical substance, 2 h culture): 3.7
The level of expressed mRNA in the presence of chemical substance/ (yeast gene YOL162W, ratio to control without chemical): 6.9
The level of expressed mRNA in the presence of chemical substance/The level of expressed mRNA in the absence of chemical substance (yeast gene YOL164W): 4.4
The level of expressed mRNA in the presence of chemical substance/ (yeast gene YOR019W, ratio to control without chemical): 1.2
The level of expressed mRNA in the presence of chemical substance/The level of expressed mRNA in the absence of chemical substance (yeast gene YOR036W): 0.9
The level of expressed mRNA in the presence of chemical substance/The level of expressed mRNA in the absence of chemical substance (yeast gene YOR117W): 1.3
The level of expressed mRNA in the presence of chemical substance/The level of expressed mRNA in the absence of chemical substance (yeast gene YOR124C): 1.1
The level of expressed mRNA in the presence of chemical substance/The level of expressed mRNA in the absence of chemical substance (yeast gene YOR132W): 1.6
The level of expressed mRNA in the presence of chemical substance/The level of expressed mRNA in the absence of chemical substance (yeast gene YOR157C): 1.3
The level of expressed mRNA in the presence of chemical substance/in the absence of chemical substance (yeast gene YOR180C): 1.1
The level of expressed mRNA in the presence of chemical substance/The level of expressed mRNA in the absence of chemical substance (yeast gene YOR181W): 0.9
The level of expressed mRNA in the presence of chemical substance/The level of expressed mRNA in the absence of chemical substance (yeast gene YOR185C): 1.3
The level of expressed mRNA in the presence of chemical substance/ (yeast gene YOR197W, ratio to control without chemical): 1.0
The level of expressed mRNA in the presence of chemical substance/The level of expressed mRNA in the absence of chemical substance (yeast gene YOR198C): 0.7
The level of expressed mRNA in the presence of chemical substance/The level of expressed mRNA in the absence of chemical substance (yeast gene YOR259C): 1.1
The level of expressed mRNA in the presence of chemical substance/The level of expressed mRNA in the absence of chemical substance (yeast gene YOR261C): 1.4
The level of expressed mRNA in the presence of chemical substance/The level of expressed mRNA in the absence of chemical substance (yeast gene YOR288C): 1.3
The level of expressed mRNA in the presence of chemical substance/The level of expressed mRNA in the absence of chemical substance (yeast gene YOR355W): 0.6
The level of expressed mRNA in the presence of chemical substance/in the absence of chemical substance (yeast gene YOR363C): 2.0
The level of expressed mRNA in the presence of chemical substance/The level of expressed mRNA in the absence of chemical substance (yeast gene YOR383C): 4.3
The level of expressed mRNA in the presence of chemical substance/ (yeast gene YPL087W, ratio to control without chemical): 5.1
The level of expressed mRNA in the presence of chemical substance/The level of expressed mRNA in the absence of chemical substance (yeast gene YPL089C): 1.0
The level of expressed mRNA in the presence of chemical substance/The level of expressed mRNA in the absence of chemical substance (yeast gene YPL109C): 2.5
The level of expressed mRNA in the presence of chemical substance/The level of expressed mRNA in the absence of chemical substance (yeast gene YPL149W): 1.5
The level of expressed mRNA in the presence of chemical substance/The level of expressed mRNA in the absence of chemical substance (yeast gene YPL154C): 3.3
The level of expressed mRNA in the presence of chemical substance/ (yeast gene YPL196W, ratio to control without chemical): 1.6
The level of expressed mRNA in the presence of chemical substance/ (yeast gene YPL206C, ratio to control without chemical): 2.9
The level of expressed mRNA in the presence of chemical substance/ (yeast gene YPL222W, ratio to control without chemical): 3.5
The level of expressed mRNA in the presence of chemical substance/ (yeast gene YPR023C, ratio to control without chemical): 1.4
The level of expressed mRNA in the presence of chemical substance/The level of expressed mRNA in the absence of chemical substance (yeast gene YPR103W): 1.1
The level of expressed mRNA in the presence of chemical substance/The level of expressed mRNA in the absence of chemical substance (yeast gene YPR108W): 1.0
The level of expressed mRNA in the presence of chemical substance/ (yeast gene YPR151C, ratio to control without chemical): 2.0
The level of expressed mRNA in the presence of chemical substance/in the absence of chemical substance (yeast gene YPR184W): 1.4
